Source: PubChem BioAssay (NCI)
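Cells were grown in 96-well plates and exposed to each compound for 48 hours at five concentrations; endpoints were interpolated linearly between bracketing concentrations, or set to the highest concentration if not reached. Abbreviation: GI50, concentration required for 50% inhibition of growth. TGI is the concentration that stops growth completely.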

Key:
Assay in all cases: NCI anticancer screen, dose series, 48 h
[1] = system: 786-0 renal
[2] = system: A498 renal
[3] = system: A549 NSCLC
[4] = system: ACHN renal
[5] = system: BT-549 breast
[6] = system: CAKI-1 renal
[7] = system: CCRF-CEM leukemia
[8] = system: COLO 205 colon
[9] = system: DU-145 prostate
[10] = system: EKVX NSCLC
[11] = system: HCC-2998 colon
[12] = system: HCT-116 colon
[13] = system: HCT-15 colon
[14] = system: HL-60(TB) leukemia
[15] = system: HOP-62 NSCLC
[16] = system: HOP-92 NSCLC
[17] = system: HS 578T breast
[18] = system: HT29 colon
[19] = system: IGROV1 ovarian
[20] = system: K-562 leukemia
[21] = system: KM12 colon
[22] = system: LOX IMVI melanoma
[23] = system: M14 melanoma
[24] = system: MCF7 breast
[25] = system: MDA-MB-231 breast
[26] = system: MDA-MB-435
[27] = system: MOLT-4 leukemia
[28] = system: NCI-H226 lung
[29] = system: NCI-H23 lung
[30] = system: NCI-H460 lung
[31] = system: NCI-H522 lung
[32] = system: NCI/ADR-RES ovarian
[33] = system: OVCAR-3 ovarian
[34] = system: OVCAR-4 ovarian
[35] = system: OVCAR-5 ovarian
[36] = system: OVCAR-8 ovarian
[37] = system: PC-3 prostate
[38] = system: RPMI-8226 leukemia
[39] = system: RXF 393 renal
[40] = system: SF-268 CNS
[41] = system: SF-295 CNS
[42] = system: SF-539 CNS
[43] = system: SK-MEL-2 melanoma
[44] = system: SK-MEL-28 melanoma
[45] = system: SK-MEL-5 melanoma
[46] = system: SK-OV-3 ovarian
[47] = system: SN12C renal
[48] = system: SNB-19 CNS
[49] = system: SNB-75 CNS
[50] = system: SR leukemia
[51] = system: SW-620 colon
[52] = system: T-47D breast
[53] = system: TK-10 renal
[54] = system: U251 CNS
[55] = system: UACC-257 melanoma
[56] = system: UACC-62 melanoma
[57] = system: UO-31 renal

Q: `NC(N)=N/N=C/c1c(-c2ccncc2)nc2sc(Cl)cn12` was tested. Which GI50 [1] did it give?
A: 6.63 µM

Q: And the TGI [1]?
A: 17 µM

Q: What about the GI50 [2] of the same compound?
A: 17.4 µM

Q: And the TGI [2]?
A: 41.2 µM

Q: What about the GI50 [3] of the same compound?
A: 20.2 µM

Q: And the TGI [3]?
A: 40.4 µM

Q: And the GI50 [4]?
A: 9.28 µM

Q: And the TGI [4]?
A: 24.5 µM

Q: And the GI50 [5]?
A: 10.3 µM

Q: What about the TGI [5] of the same compound?
A: 27.8 µM

Q: And the GI50 [6]?
A: 18.1 µM

Q: And the TGI [6]?
A: 34.7 µM

Q: What about the GI50 [7] of the same compound?
A: 2 µM

Q: What about the TGI [7] of the same compound?
A: 4.58 µM

Q: And the GI50 [8]?
A: 4.21 µM

Q: And the GI50 [9]?
A: 17.5 µM

Q: And the TGI [9]?
A: 33.3 µM

Q: What about the GI50 [10] of the same compound?
A: 21 µM

Q: And the TGI [10]?
A: 39.2 µM

Q: And the GI50 [11]?
A: 3.29 µM

Q: And the TGI [11]?
A: 9.36 µM

Q: And the GI50 [12]?
A: 2.55 µM

Q: And the TGI [12]?
A: 6.22 µM

Q: What about the GI50 [13] of the same compound?
A: 17.6 µM

Q: And the TGI [13]?
A: 36.3 µM

Q: And the GI50 [14]?
A: 19 µM

Q: What about the TGI [14] of the same compound?
A: 45 µM

Q: What about the GI50 [15] of the same compound?
A: 15.2 µM

Q: What about the TGI [15] of the same compound?
A: 37.2 µM

Q: And the GI50 [16]?
A: 1.43 µM

Q: And the TGI [16]?
A: 4.63 µM

Q: What about the GI50 [17] of the same compound?
A: 18.8 µM

Q: And the TGI [17]?
A: 41.7 µM

Q: What about the GI50 [18] of the same compound?
A: 17.1 µM

Q: And the TGI [18]?
A: > 51.3 µM

Q: And the GI50 [19]?
A: 42.7 µM

Q: And the TGI [19]?
A: > 100 µM

Q: What about the GI50 [20] of the same compound?
A: 2.96 µM

Q: What about the TGI [20] of the same compound?
A: 13.3 µM

Q: And the GI50 [21]?
A: 2.48 µM

Q: What about the TGI [21] of the same compound?
A: 10.8 µM

Q: What about the GI50 [22] of the same compound?
A: 3.03 µM

Q: And the TGI [22]?
A: 9.55 µM

Q: And the GI50 [23]?
A: 6.54 µM

Q: And the TGI [23]?
A: 14.7 µM

Q: What about the GI50 [24] of the same compound?
A: 5.19 µM

Q: And the TGI [24]?
A: > 94.2 µM

Q: What about the GI50 [25] of the same compound?
A: 1.58 µM

Q: And the TGI [25]?
A: 3.6 µM

Q: What about the GI50 [26] of the same compound?
A: 6.63 µM

Q: What about the TGI [26] of the same compound?
A: 13.6 µM

Q: And the GI50 [27]?
A: 2.83 µM

Q: What about the TGI [27] of the same compound?
A: 7.26 µM

Q: And the GI50 [28]?
A: 3.98 µM

Q: What about the TGI [28] of the same compound?
A: 15.2 µM

Q: What about the GI50 [29] of the same compound?
A: 10 µM

Q: And the TGI [29]?
A: 24.1 µM

Q: And the GI50 [30]?
A: 27.5 µM

Q: What about the TGI [30] of the same compound?
A: > 59.2 µM

Q: What about the GI50 [31] of the same compound?
A: 10.1 µM

Q: What about the TGI [31] of the same compound?
A: > 28.5 µM

Q: What about the GI50 [32] of the same compound?
A: 35.5 µM

Q: What about the TGI [32] of the same compound?
A: > 100 µM

Q: And the GI50 [33]?
A: 5.55 µM

Q: And the TGI [33]?
A: 11.6 µM

Q: What about the GI50 [34] of the same compound?
A: 1.57 µM

Q: What about the TGI [34] of the same compound?
A: 6.16 µM

Q: What about the GI50 [35] of the same compound?
A: 7.1 µM

Q: What about the TGI [35] of the same compound?
A: 21.4 µM

Q: What about the GI50 [36] of the same compound?
A: 15.2 µM

Q: And the TGI [36]?
A: 36.4 µM

Q: What about the GI50 [37] of the same compound?
A: 5.8 µM

Q: What about the TGI [37] of the same compound?
A: 18.8 µM

Q: What about the GI50 [38] of the same compound?
A: 6.52 µM

Q: What about the TGI [38] of the same compound?
A: 21.1 µM

Q: What about the GI50 [39] of the same compound?
A: 15.2 µM

Q: And the TGI [39]?
A: 33.2 µM

Q: What about the GI50 [40] of the same compound?
A: 5.31 µM

Q: What about the TGI [40] of the same compound?
A: 15.3 µM

Q: And the GI50 [41]?
A: 13.5 µM

Q: And the TGI [41]?
A: 33.7 µM

Q: And the GI50 [42]?
A: 7.06 µM

Q: And the TGI [42]?
A: 13.7 µM

Q: And the GI50 [43]?
A: 11.8 µM

Q: And the TGI [43]?
A: > 33.7 µM

Q: And the GI50 [44]?
A: 14.3 µM

Q: What about the TGI [44] of the same compound?
A: 38.8 µM

Q: And the GI50 [45]?
A: 18.1 µM

Q: And the TGI [45]?
A: 36.2 µM

Q: What about the GI50 [46] of the same compound?
A: 22.4 µM

Q: What about the TGI [46] of the same compound?
A: 48.1 µM

Q: And the GI50 [47]?
A: 2.59 µM

Q: What about the TGI [47] of the same compound?
A: 8.58 µM

Q: What about the GI50 [48] of the same compound?
A: 7.62 µM

Q: And the TGI [48]?
A: > 20.6 µM

Q: What about the GI50 [49] of the same compound?
A: 4.89 µM

Q: And the TGI [49]?
A: 18.9 µM

Q: And the GI50 [50]?
A: 2.24 µM

Q: What about the TGI [50] of the same compound?
A: 4.97 µM

Q: What about the GI50 [51] of the same compound?
A: 7.34 µM

Q: And the TGI [51]?
A: 18 µM

Q: And the GI50 [52]?
A: 28.6 µM

Q: And the TGI [52]?
A: 56.6 µM

Q: And the GI50 [53]?
A: 5.26 µM

Q: And the TGI [53]?
A: 10.9 µM

Q: And the GI50 [54]?
A: 1.94 µM

Q: What about the TGI [54] of the same compound?
A: 3.93 µM

Q: What about the GI50 [55] of the same compound?
A: 21.5 µM

Q: And the TGI [55]?
A: 40.6 µM

Q: And the GI50 [56]?
A: 1.88 µM

Q: And the TGI [56]?
A: 4.91 µM

Q: And the GI50 [57]?
A: 8.93 µM

Q: And the TGI [57]?
A: > 22.7 µM
